The results in this text go back to US10973810B2, “Methods for the treatment of neurological disorders” (Yumanity Therapeutics, Inc., priority 2017, dated 2021).

Each structure is given as a SMILES string.

One experiment deals with T1, human SCD5 (Homo sapiens, UniProt Q86SK9).
T1 construct: host or cells: S. cerevisiae ole1Δ strain (W303 pdr1Δ pdr3Δ background), plasmid pRS316 with TDH3 promoter and CYC1 terminator
T1 sequence (Q86SK9 1-330): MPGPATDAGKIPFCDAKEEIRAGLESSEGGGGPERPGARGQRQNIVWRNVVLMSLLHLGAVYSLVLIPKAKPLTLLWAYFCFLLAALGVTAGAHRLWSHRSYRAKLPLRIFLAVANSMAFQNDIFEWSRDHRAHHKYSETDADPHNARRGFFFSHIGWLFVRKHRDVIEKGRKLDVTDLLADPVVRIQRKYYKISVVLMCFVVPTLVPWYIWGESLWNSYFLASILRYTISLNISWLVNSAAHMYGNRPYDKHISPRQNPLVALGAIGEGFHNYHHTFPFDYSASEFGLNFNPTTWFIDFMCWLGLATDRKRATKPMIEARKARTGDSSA
The experiment in a line: Growth of humanized yeast surviving solely on human SCD5. Format: cell-based. The following applies: growth inhibition. The text has this: To generate yeast strains expressing SCD1 or SCD5 as the sole desaturase, the human SCD1 and SCD5 genes were cloned from cDNAs (Harvard PlasmID database Clone ID HsCD00340237 for SCD1 and HsCD00342695 for SCD5) into yeast plasmid pRS316 (ATCC 77145) between the yeast TDH3 promoter and the CYC1 terminator. The coding sequence of yeast OLE1 was also cloned into this plasmid). These clones were then transformed into the ole1d strain and plated on CSM-Ura media (CSM lacking uracil) with 2% glucose (w/v) and independent colonies were isolated and amplified.
For experiments using a plasmid-borne copy of Ole1, SCD1, or SCD5 (FIGS. 3B, 6, and 7), media lacking uracil (SX-Ura, where X is glucose, raffinose, or galactose), was used for all steps of the compound profiling protocol to ensure its maintenance throughout the assay.
After yeast delivery, assay plates were incubated under humidified conditions at 30° C. for 24 to 40 h. ApoE4 rescue experiments were stopped at 24 h, aSyn experiments at 40 h, Ole1 at 24 h, and SCD1/SCD5 at 40 h. The growth of yeast was monitored by reading the OD600 of each well using a microplate reader (Perkin Elmer EnVision™). For model rescue experiments, raw data were processed by background subtracting and calculating a fold-change relative to DMSO control [(EXP-0.035)/(DMSO-0.035)—where 0.035 is the OD600 contributed by an empty well containing 30 μL of media alone]. For growth inhibition of wild-type cells, raw data were processed by background subtracting and converting values to a percent of the nontreated condition for that strain [(EXP-0.035)/(DMSO-0.035)×100%].

In another experiment the test system is SCD. In words: Fatty acid saturation in guinea pig brain after oral administration of SCD inhibitors (GC-FID of FAME). Format: in vivo. The following applies: 25 mg/kg orally twice daily for 5 days; brain 4 h after last dose; vs vehicle. As to the method:
FIG. 18A-18F are a series of graphs showing an evaluation of fatty acid saturation in guinea pig brain after oral administration of SCD inhibitors. Guinea pigs were dosed orally with SCD inhibitors twice daily (every 12 hours) for 5 days. Guinea pigs were dosed with vehicle, SCD5 Selective Inhibitor 1 (“SCD5-SI-1”), SCD5 Selective Inhibitor 2 (“SCD5-SI-2”), CAY10566 (“CAY”) or SCD1/SCD5 Inhibitor 1 (“SCD1/5-1”), all compounds at 25 mg/kg with a volume-matched vehicle control. Four hours after the last dose on day 5, guinea pigs were sacrificed, and brains were removed after whole-body saline perfusion. […] Samples were evaluated on a gas chromatograph with a flame ionization detector (GC-FID) to quantify a comprehensive panel of fatty acid species. Brain samples were evaluated for levels of 16 (FIG. 18A) and 18 (FIG. 18B) carbon-containing fatty acids (C16, C18 respectively), and the desaturation index (DI) was calculated by taking the ratio of desaturated to saturated fatty acid for each species. […] Brain samples were evaluated for the relative levels of the positional isomers of C16, including C16:1 n7 palmitoleic acid (FIG. 18C) or C16:1 n9 monounsaturated fatty acids (FIG. 18D). […] Data was analyzed by one-way ANOVA with Tukey's post-hoc test to account for multiple comparisons. **p<0.01, ***p<0.005, ****p<0.0001. […]

With `Cc1nnc(-c2ccc(N3CCC(Oc4cc(F)ccc4Cl)CC3)nn2)o1` [CAY10566], the “half-maximal inhibitory concentration (IC50), SCD5 humanized strain” value on human SCD5 is “low nanomolar”. Also, the “C16 desaturation index (DI) in brain” value in the experiment with SCD is listed as “decreased”.
